Measurements reported in patent US6787564B2, “Optically active clausenamides, process of the preparation thereof, pharmaceutical composition containing the same and their medical use” (Institute of Materia Medica, Chinese Academy of Medical …, priority 2002, dated 2004).

Columns and labels:
mitochondrial complex I = mitochondrial complex I activity in Bax α high expressing PC12 cells; type: cell-based; settings: without drug 1.44±0.16
Text: (§1) Obviously, the increased mitochondrial membrane potential is considered to be one of the antiapoptotic mechanisms of (−) Clausenamide. The increased mitochondrial complex I and complex IV activity may account for the increased mitochondrial membrane potential. The Bax α protein may induce apoptosis by affecting enzyme activities of the mitochondrial electron transfer chain. And the mitochondrial complex I and complex IV could be the targeting points of the Bax α protein.

rats = experiment: mossy fiber sprouting in fascia dentata and hippocampal CA3 region; type: in vivo; settings: 8 and 40 mg·kg^−1 orally daily for 10 days; adult rat
Text: 2. […] This is morphological basis for levoclausenamide to incnease synaptic transmission (see FIGS. 1 and 2).

calpain = calpain activity in the cortical and hippocampal tissue; type: in vivo, rats; settings: without HFS, Nimodipine 2 nmol, mean ± S.D., n = 5
Text: The rats were anaesthetized with urethane carbonate.

[1] = system: Bax α high expressing PC12 cells; experiment: 6-OHDA induced apoptosis of Bax α high expressing PC12 cells (TUNEL, flowcytometry); type: cell-based; settings: 6-OHDA 100 μM, without drug 49.9%
Text: 1. The Construction of pcDNA3-bax α Plasmid and its Transfection into the PC12 Cell Line
In order to increase the expression level of the transfected gene, we first cut some of the 3′ polyA signal sequences from the Bax α cDNA and constructed the intermediate plasmid pBluescript SK-Bax α (pA). Then cut the Bax α cDNA from the intermediate plasmid, religate with the eukaryotic expression plasmid pcDNA3 and obtained the pcDNA3-Bax α recombinant plasmid. […] The recombinated Bax α has −50 bp of 5′ untranslated region(5′-UTR), 576 bp of open reading frame (ORF), and 137 bp of 3′ untranslated region (3′-UTR). The 5′ methionine translation initiation region has the Kozak consensus sequences. So this plasmid may be used to transform the Bax α gene into the mammalian cells and guarantees highly expression of Bax α by using its strong promoter.
The Lipofectamine transfecting method was used to transfect the pcDNA3-Bax α into the PC12 cell line. G-418 was used to select the resistant cell clones. […] This experiment successfully produced the Bax α high expressing PC12 cell line.
Under normal condition, the Bax α high expressing cells had the same natural apoptosis rate with the neo transfected PC12 cells.

Ach, ChAT = experiment: Ach content and ChAT activity in cortex, hippocampus and striatum; settings: in vivo
isolated mitochondria = experiment: Bax α induced cytochrome c release from isolated mitochondria; type: biochemical
Text: Studies have shown that the widely existing cytochrome c plays an important role in inducing apoptosis. Cytochrome c is the water soluble cytochrome within the cell and existed at the outside of the mitochondria inner membrane. Cytochrome c could be released into the cytoplasm from the mitochondrial to activate the apoptotic program. This study first purified the His-tagged Bax protein from the bacteria by the Metal Affinity method. When added to the isolated mitochondria, it caused a significant decrease of mitochondrial cytochrome c content (74.43±5.69 ug/mg, pro vs 50.2±3.65 ug/mg pro, p<0.01). […] It means that (−) clausenamide may also act directly on mitochondrial itself to exert its antiapoptotic activity independent Bcl-2. The exact mechanism of action still remains to be determined.

[2] = system: animals with anisodine-induced memory impairment; experiment: memory impairment induced by anisodine in water maze test; type: in vivo; settings: anisodine + drug 10 mg/kg
Text: (§2) This invention used one trial avoidance task—step-down and step-through tests and water maze to compare the improving memorial effects of (±), (−) clausenamide. The drugs were given orally once to animals before experiment in step-down and step-through tests. The water maze test lasted for 5 days in succession. The results were expressed as latency and errors number.

[3] = system: Bax α high expressing PC12 cells; experiment: mitochondrial GSH and MDA level in 6-OHDA treated Bax α high expressing PC12 cells; type: cell-based; settings: for mitochondrial GSH level: without drug 9.84±1.20; for mitochondrial MDA level: without drug 2.46±0.19
Text: (§3) It means that Bax α expression may promote the production of reactive oxygen species. The antiapoptotic effect of (−) clausenamide may be attributed to its reduction of the mitochondrial MDA level and the increase of mitochondrial GSH level. The increased mitochondrial GSH may be the result of the increased Bcl-2 level. As Bcl-2 itself is not an antioxidant, it may promote the closing of PT pores, and form heterodimers with Bax α and protect the mitochondria from injury and thus reduce the production of reactive oxygen, species.

[4] = system: β-AP (25-35)-treated rats; experiment: one trial passive avoidance of β-AP (25-35)-treated rats; type: in vivo; settings: n = 9
mitochondrial complex IV = mitochondrial complex IV activity in Bax α high expressing PC12 cells; type: cell-based; settings: without drug 0.09±0.019
Text: as §1

apoptosis = experiment: three apoptotic models; type: cell-based; settings: 10^−7−10^−5 mol/l
weaning mice = experiment: synapses density in weaning mice; settings: mouse, in vivo
animals = experiment: nootropic action overall: step-down, step-through and water maze tests; type: in vivo; settings: in vivo
Experimental: This invention used one trial avoidance task—step-down and step-through tests and water maze to compare the improving memorial effects of (±), (−) clausenamide.
The drugs were given orally once to animals before experiment in step-down and step-through tests. The water maze test lasted for 5 days in succession. The results were expressed as latency and errors number.
The effective dose of piracetam was 500 mg.kg^−1.

[5] = system: Bax α high expressing PC12 cells; experiment: mitochondrial membrane potential in 6-OHDA treated Bax α high expressing PC12 cells; type: cell-based; settings: 6-OHDA 12 hours, without drug 24.6
Text: as §1

[6] = system: animals with anisodine-induced memory impairment; experiment: step-down test, memory impairment induced by anisodine; type: in vivo
Text: as §2

Bcl-2 = Bcl-2 expression level by western blot in 6-OHDA treated Bax α high expressing PC12 cells; type: cell-based; settings: 10^−7M, 10^−6M; 24 hours after 6-OHDA treatment
Text: as §3

## CN1C(=O)[C@@H](O)[C@H](c2ccccc2)[C@@H]1[C@@H](O)c1ccccc1 [(−)clausenamide, 3S, 4R, 5R, 6S (−) Levoclausenamide]
Mitochondrial complex I; 10^−5M
  mitochondrial complex I activity: 2.16±0.2 umol/mg pro/min
Mitochondrial complex I; 10^−7M
  mitochondrial complex I activity: 1.57±0.12 umol/mg pro/min
rats
  mossy fiber sprouting in the fascia dentate and stratum lucidum: dose-dependently increased
calpain; control 1.5 ± 0.2
  calpain activity, Cortical tissue: 2.6 ± 0.5 ΔA595nm/hr/mg protein
calpain; control 1.7 ± 0.5
  calpain activity, Hippocampal tissue: 2.7 ± 0.8 ΔA595nm/hr/mg protein
[1]; 10^−5M
  apoptotic rate: 9.5%
[1]; 10^−6M
  apoptotic rate: 28.1%
[1]; 10^−7M
  apoptotic rate: 36.23%
Ach, ChAT
  Ach content in cortex, hippocampus and striatum: increased
  ChAT activity in cortex, hippocampus and striatum: increased
Isolated mitochondria; 10^−5M, Bax alone 50.2±3.65
  mitochondrial cytochrome c content after Bax α induced release: 67.95±7.6 μg/mg pro
Isolated mitochondria; 10^−6M, Bax alone 50.2±3.65
  mitochondrial cytochrome c content after Bax α induced release: 61.7±5.3 μg/mg pro
Isolated mitochondria; 10^−7M, His-tagged Bax alone 50.2±3.65, no Bax 74.43±5.69
  mitochondrial cytochrome c content after Bax α induced release: 58.73±3.77 μg/mg pro
[2]
  Errors number: 9.4 ± 5.9
[3]; 10^−5M
  mitochondrial GSH level: 17.78±1.04 nmol/mg pro
[3]; 10^−6M
  mitochondrial MDA level: 1.54±0.13 nmol/mg pro
  mitochondrial GSH level: 15.10±0.95 nmol/mg pro
[3]; 10^−7M, 6-OHDA treated
  mitochondrial GSH level: 12.29±0.99 nmol/mg pro
[3]; 10^−7M
  mitochondrial MDA level: 1.76±0.17 nmol/mg pro
[4]; β-AP-treated + drug 8 mg/kg
  Number of error, Acquisition: 0.7 ± 0.24
  Number of error, Training: 3.1 ± 1.22
[4]; β-AP-treated + drug 40 mg/kg
  Number of error, Acquisition: 1.1 ± 0.27
  Number of error, Training: 4.4 ± 0.87
Mitochondrial complex IV; 10^−5M
  mitochondrial complex IV activity: 0.18±0.01 umol/mg pro/min
Mitochondrial complex IV; 10^−6M
  mitochondrial complex IV activity: 0.15±0.02 umol/mg pro/min
Mitochondrial complex IV; 10^−7M
  mitochondrial complex IV activity: 0.12±0.015 umol/mg pro/min
apoptosis
  apoptosis in three apoptotic models: inhibited apoptosis significantly
Weaning mice
  synapses density in weaning mice: increased synapses density
animals
  nootropic action, times more potent than (±) clausenamide: 5-10 times
  nootropic action, times more potent than piracetam: 50-100 times
[5]; 10^−6M
  mitochondrial membrane potential: 56.0±5.0
[5]; 10^−7M
  mitochondrial membrane potential: 30.7±3.3
[6]; 5 mg/kg oral once
  Error number, Step-down: 0.5 ± 0.5
  Latencies, Step-down: 186 ± 129 s
[6]; 10 mg/kg oral once
  Error number, Step-down: 0.2 ± 0.4
  Latencies, Step-down: 296 ± 97 s
[6]; 50 mg/kg oral once
  Error number, Step-down: 0.2 ± 0.4
  Latencies, Step-down: 265 ± 91 s
Bcl-2
  Bcl-2 expression level: significantly increase the Bcl-2 expression level
